This assay concerns Plasmodium falciparum. Nature of the assay: GSK_TCMDC: Inhibition of Plasmodium falciparum 3D7 in whole erythrocytes, using parasite LDH activity as an index of growth. It counts as functional, organism-based. As to conditions: Plasmodium falciparum, 3D7.
In turn, `Cc1nc(N)nc(N)c1-c1cccc(Cl)c1` came in with an XC50 of 1170 nM. Next, `CC(C)CCN1C(=O)C(NC(=O)Oc2ccccc2)C(=O)N(CC23CC4CC(CC(C4)C2)C3)c2ccccc21` (stereo not given): 752 nM; `CCC1CN2CCc3cc(OC)c(OC)cc3C2CC1CC1NCCc2cc(OC)c(OC)cc21` (stereo not given): 145 nM. Next, `N#Cc1cccc(-c2cccc(C(=O)NC3CCC(CCN4CCc5ccc(C#N)cc5CC4)CC3)c2)c1` (stereo not given): 265 nM; `CCOC(=O)C1=C(C)N=c2sc(=Cc3cc(Cl)ccc3O)c(=O)n2C1c1ccc(OC)cc1` (stereo not given): 746 nM. `COc1cc(NC(=O)c2sc(-c3ccc(Cl)cc3)cc2NC(=O)c2cccc(N(C)C)c2)ccc1OCCN1CCCC1` gave an XC50 of 709 nM. As for `CCCN(CCC)CCOC(=O)C(OCC)(c1ccccc1)c1ccccc1`, the XC50 was 871 nM.

`COc1ccc2nccc(N3CCC(NCCNS(=O)(=O)c4ccc5c(c4)NC(=O)CS5)C3)c2n1` (stereo not given) had an XC50 of 901 nM. `COc1cc2nc(N3CCC(CNC(=O)c4ccc(NC(=O)c5ccc(Cl)cc5)cc4)CC3)nc(N)c2cc1OC` gave an XC50 of 264 nM. Compound `Cc1cc(Cl)ccc1NC(=O)Nc1ccc2nccc(N3CCN(C)CC3)c2c1` came in with an XC50 of 394 nM. As for `CCNc1cc(C(=O)N[C@@H](Cc2ccccc2)[C@H](O)CN[C@@H](C)c2ccccc2)cc(N2CCCC2=O)c1`, the XC50 is 666 nM. In turn, `CCCCCCCCN1CCCN(C(=O)c2cccc(NC(=O)Nc3ccc4ccccc4c3)c2)CC1` showed an XC50 of 762 nM. The result for `CS(=O)(=O)c1ccc(OCCCN(Cc2ccccc2C(F)(F)F)c2ccc(C#N)c(C(F)(F)F)c2)cc1` reads 1020 nM; that for `O=C(N[C@@H](CC1CCCCC1)C(=O)NC1CCCc2ccccc21)c1ccc(O)c(-c2cccc(C(F)(F)F)c2)c1` (stereo not given in full), 600 nM. Next, `CC(C)NCc1ccc(-c2ccc(NC(=O)c3cccc(C#N)c3)cc2)cc1`: 654 nM. Next, `N=C(N)NC(=O)Nc1cc(Br)c(Cl)c(Br)c1`: 765 nM; `CCCc1cc(OC)c(C[C@H]2c3cc(O)c(Cl)cc3CCN2C)cc1OC`: 576 nM; `COc1ccc2nccc([C@@H](O)CN3CCC(NCc4cc5cccc(O)c5[nH]4)CC3)c2c1`: 836 nM. `Clc1ccc(-c2cc(-c3csc(NCCN4CCOCC4)n3)on2)c(Cl)c1` came in with an XC50 of 660 nM. The compound `CCCNCc1ccc(-c2ccc(CN(CCOC)C(=O)c3ccccc3)cc2)nc1` yielded an XC50 of 876 nM. Next, `Cc1ccc(Nc2nc(C)cc(NC3CC3)n2)cc1`: 1220 nM. `Clc1ccc(C2CCN(CCCOc3ccc4c(c3)CCNCC4)CC2)cc1` had an XC50 of 754 nM. For `CCc1cn2c3c(cc(C(=O)N[C@@H](Cc4ccccc4)[C@H](O)CNC4CC4)cc13)N(CC)S(=O)(=O)CC2`, the XC50 was determined as 112 nM.

`O=C(Nc1cccc(CN2CCCN(Cc3ccc(O)cc3)CC2)c1)c1ccc(Br)cc1` displayed an XC50 of 800 nM.

`CC(C)C[C@H]1C(=O)N[C@H](C2Cc3ccccc3C2)C(=O)N1[C@@H](C(=O)Nc1ccccc1OCc1ccccc1)c1ccc(F)cc1F`: the XC50 worked out at 1020 nM. `c1cc(CN2CCCCC2)cc(-c2ccc(-c3nc4ccccc4[nH]3)s2)c1` showed an XC50 of 869 nM. For `CCN(CC)CCNc1ccnc2[nH]c3ccc(I)cc3c12`, the XC50 stood at 230 nM. Consider `CCN(CC)/C(=N\CCCCCC/N=C(\NC(=N)c1ccc(Cl)cc1)N(CC)CC)NC(=N)c1ccc(Cl)cc1`, for which the XC50 came to 381 nM. In turn, `CC(C)(C)C1CC(=O)CC2C(=O)N(C3CCCCC3)C(=O)C21` (stereo not given) came in with an XC50 of 421 nM. Compound `CCOc1ccc(C(=O)Nc2cc3c(c(C(F)(F)F)c2)CCNC3)cc1Cl` gave an XC50 of 1060 nM. `COc1cc(Cc2cnc(N)nc2N)ccc1OCc1ccc(NC(C)=O)cc1`: the XC50 was determined as 368 nM.

`O=C(/C=C/c1ccc(C(F)(F)F)cc1)NCCCCCN1CCN(C(=O)Nc2ccc(F)c(Cl)c2)CC1` gave an XC50 of 1210 nM.

For `Cc1cc(C)c(NC(=O)NC2CCN(CCCCCNC(=O)/C=C/c3ccc(Cl)c(Cl)c3)CC2)c(C)c1`, the XC50 was 797 nM. Compound `Clc1ccc2c(NCCCCCCCCNc3ccnc4cc(Cl)ccc34)ccnc2c1` had an XC50 of 482 nM. Compound `O=C(NC(c1ccccc1)c1ccc2cccnc2c1O)c1ccccc1` (stereo not given) had an XC50 of 428 nM.

`O=C(C=Cc1ccc(F)cc1)NC1CCC(CCN2CCc3ccc(-c4cnccn4)cc3CC2)CC1` (stereo not given) gave an XC50 of 695 nM. With `CCNC(=O)NC1CCN(Cc2c(-c3cccs3)nc3ccccc3c2C(=O)N[C@@H](C)C2CCCCC2)CC1`, the XC50 turned out to be 91.3 nM. Next, `CC(Cc1ccc(OCCOc2ccccc2)cc1)NCC(O)c1cccc(Cl)c1` (stereo not given): 1040 nM. Compound `CC(C)N1CCN(C(CN2CCN(CCCOc3cccc(F)c3)CC2)c2ccc(F)cc2)CC1` (stereo not given) yielded an XC50 of 912 nM. The result for `CCCN1CCN(CC(O)CNC(=O)Nc2ccc(Cl)cc2)CC1` (stereo not given) reads 96.9 nM; that for `Fc1cccc(C=NNc2ccnc3cc(Cl)ccc23)c1`, 528 nM; that for `O=C(NC1CC1c1ccccc1)N(CCCn1ccnc1)Cc1csc(-c2ccc(CNCc3ccccc3)cc2)n1` (stereo not given), 854 nM. As to `Cc1cc(O)c(CN2CCN(Cc3cccs3)CC2)cc1C(C)C`, the XC50 was found to be 716 nM.

For the compound `NC1CCN(c2nc(NCCCc3ccc(O)cc3)nc(NCc3ccccc3-c3ccc(C(F)(F)F)cc3)n2)CC1`, the XC50 was 727 nM.

In turn, `CCc1cccc(-n2c(=O)c3cccnc3n2CC(=O)NCc2ccccc2Cl)c1` yielded an XC50 of 741 nM. The result for `COc1ccc(-c2cccc(NC(=O)c3cccc(Cl)c3)c2)cc1CN1CCN(C)CC1` reads 760 nM.

`COc1c(C2=CCN(CCCCNC(=O)c3ccc(-c4ccc(C#N)cc4)cc3)CC2)ccc2c1CCCC2` came in with an XC50 of 911 nM. Next, `O=C(Nc1ccc(Cl)cc1)c1ccc(CN2CCCN(Cc3cccc(O)c3)CC2)cc1`: 388 nM. `CCCCCCN1CCN(Cc2cccc(NC(=O)c3cc4ccccc4s3)c2)CC1` yielded an XC50 of 912 nM. As to `COc1ccc(-c2cccc(NC(=O)c3cccc(C#N)c3)c2)cc1CN1CCCC1`, the XC50 stood at 748 nM. `O=C(C=Cc1ccc(-c2nc3ccccc3[nH]2)cc1)NC1CCN(Cc2ccccc2)CC1`: the XC50 turned out to be 740 nM. For the compound `O=C(Nc1ccc(-c2nc3ccccc3[nH]2)cc1)c1ccc(-c2cccc([N+](=O)[O-])c2)o1`, the XC50 was determined as 267 nM. As to `CN(C)c1ccc(-c2csc(C(=O)NC3CCN(CCC(C)(C)C)C3)c2)cc1` (stereo not given), the XC50 came to 971 nM. Turning to `Nc1ccc2c(N)c3ccccc3nc2c1`, the XC50 was 812 nM. Next, `O=C(/C=C/c1ccc(Cl)c(Cl)c1)NCCCCCCN1CCCN(C(=O)Nc2cc(Cl)cc(Cl)c2)CC1`: 780 nM. With `O=C(NC1CCC(CN2CCC(c3c[nH]c4ccccc34)CC2)CC1)c1cc(-c2cccc(Cl)c2)n(-c2ccc(Cl)cc2Cl)n1` (stereo not given), the XC50 stood at 1080 nM. For the compound `COc1ccc(Nc2nccc(N3CCC(NC(=O)c4cccc(C#N)c4)C3)n2)cc1` (stereo not given), the XC50 was 819 nM. Compound `O=C(Cc1c[nH]cn1)Nc1ccc(-c2cccc(-c3nc4cc(C(F)(F)F)ccc4[nH]3)c2)cc1` yielded an XC50 of 742 nM.

For the compound `CC(C)CN(c1nc(C(=O)NNC(=O)[C@H](CC2CC2)NC(=O)c2cc3cc(OCCN(C)C)ccc3o2)cs1)C1CC1`, the XC50 was 1030 nM. In the case of `Cc1cc(N[C@@H](CC(C)C)C(=O)NCCCOC(C)C)nc(NCCc2ccc(F)cc2)n1`, the XC50 turned out to be 1250 nM. In turn, `CC(=O)c1c(C)[nH]c(C(=O)Nc2ccc(-c3nc4ccc(C)cc4s3)cc2)c1C` displayed an XC50 of 837 nM. The compound `O=C1NC(C(=O)Nc2ccccc2)C(c2ccccc2)S1` (stereo not given) yielded an XC50 of 168 nM. For the compound `O=C(Nc1ccc(Cn2ncc(N3CCCNCC3)c(Cl)c2=O)cc1)Nc1cccc(C(F)(F)F)c1`, the XC50 came to 640 nM.

Take `Brc1cc(Br)c2c(c1)C(NCCCNC1CCNc3c(Br)cc(Br)cc31)CCN2` (stereo not given): the XC50 was 823 nM.

`CCCC1N=C(N)N=C(N)N1c1ccccc1` (stereo not given) returned an XC50 of 823 nM. For the compound `O=C(NC1CCN(Cc2cccc(C(F)(F)F)c2)CC1)c1ccc(-c2cccc(C(F)(F)F)c2)s1`, the XC50 is 1010 nM. Consider `CN(c1ccc2c(c1)nc(Nc1ccc(Cl)cc1)n2C)c1ccnc(Nc2ccc(CS(C)(=O)=O)cc2)n1`, for which the XC50 is 758 nM. For the compound `COc1ccc(CCC(C)(C)NCC(O)c2cccc(C(F)(F)F)c2)cc1` (stereo not given), the XC50 was 480 nM. `Cc1ccc(Cn2nc(N3CCNCC3)ccc2=O)cc1NC(=O)Nc1ccc(-c2ccccc2)cc1` came in with an XC50 of 836 nM.

In turn, `CC(=O)C1(c2ccccc2)CCN(CCC2(c3ccc(Cl)c(Cl)c3)CN(C(=O)CC(C)C)CCO2)CC1` (stereo not given) showed an XC50 of 644 nM.

The compound `CCC(CC)N1CCN(CC(=O)Nc2ccc([N+](=O)[O-])cc2C(=O)Nc2cccc(OC)c2)CC1` yielded an XC50 of 866 nM. In turn, `CN(C)CCc1coc2ccc(C(=O)Nc3ccc(-c4ccc(O)cc4)cc3)cc12` showed an XC50 of 1080 nM. For `CC(=O)Nc1ccc(CNCCc2ccc(NC(=O)c3cc(Cl)cc(Cl)c3)cc2)cc1`, the XC50 is 684 nM. Consider `Clc1cc(Cl)c2cc(CN[C@H]3CCC[C@@H]3CNc3nc4ccccc4[nH]3)[nH]c2c1`, for which the XC50 stood at 275 nM. The compound `COC(=O)C(=C(C)C)N1C(=O)[C@@H](NC(=O)OCc2ccccc2)[C@H]1SS[C@@H]1[C@H](NC(=O)OCc2ccccc2)C(=O)N1C(C(=O)OC)=C(C)C` had an XC50 of 434 nM.

In turn, `O=C(/C=C/c1ccc([N+](=O)[O-])cc1)N1CCC(NS(=O)(=O)c2ccc(Br)cc2)CC1` showed an XC50 of 1050 nM. The result for `CCCc1ccc(NC(=O)c2ccc(CN3CCCN(CC4CCCCC4)CC3)cc2)cc1` reads 524 nM; that for `CC1(C)NC(N)=NC(=N)N1OCCCc1cc(Cl)c(Cl)cc1Cl`, 3.2 nM; that for `Cc1cc(CNCC(CCNc2cc(=O)c3ccccc3[nH]2)NCc2cc(Br)cc(Br)c2)oc1C` (stereo not given), 894 nM. On to `O=C(Nc1cccc(-c2cccc(-c3nc4cc(F)ccc4[nH]3)c2)c1)c1c[nH]cn1`, for which the XC50 came out at 459 nM. On to `Fc1ccc2[nH]c(-c3ccc(-c4ccc(CNCc5ccccc5)cc4)cc3)nc2c1`, for which the XC50 is 284 nM. Take `c1ccc(CN2CCC(NCc3ccc(-c4cccc(CNC5CCCC5)c4)cc3)CC2)cc1`: the XC50 turned out to be 339 nM.

Consider `O=C(NCC1CCC(C(=O)NC2CCCc3ccccc32)CC1)c1ccc(O)c(-c2cccc([N+](=O)[O-])c2)c1` (stereo not given), for which the XC50 worked out at 942 nM. The compound `Cc1cccc2nc(-c3ccc(-c4ccc(NC(=O)Nc5ccsc5)cc4)cc3)[nH]c12` registered an XC50 of 171 nM. The compound `COCCNCc1cccc(-c2ccc3c(Nc4ccc(F)cc4Cl)ccnc3c2)c1` came in with an XC50 of 680 nM.
